Measurements reported in patent publication US11680060B2, “Bicycloheptane pyrrolidine orexin receptor agonists” (Merck Sharp & Dohme LLC, priority 2020, dated 2023).
Like-named read-outs stand apart in the source and are kept apart here.

Biological target: human OX2R (Homo sapiens (Human), UniProt O43614)
Experiment: IPOne (IP-1) assay in CHO cells expressing human OX2R
Type: cell-based
Conditions: CHO
Procedure, shortened: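 CHO cells stably expressing human OX2R were stimulated with compound (10-point ½-log dilutions) for 2 h at 37 °C. IP-1 accumulation was read by HTRF (IP-One, 665/620 nm). EC50 from a four-parameter fit; % effect relative to 1 μM reference agonist control.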

[1] = percentage of mean max effect of a reference compound at 1 uM (100% activity by comparison to Orexin A), human OX2R, read-out: Emax (%)

Sequence of human OX2R (O43614 whole entry): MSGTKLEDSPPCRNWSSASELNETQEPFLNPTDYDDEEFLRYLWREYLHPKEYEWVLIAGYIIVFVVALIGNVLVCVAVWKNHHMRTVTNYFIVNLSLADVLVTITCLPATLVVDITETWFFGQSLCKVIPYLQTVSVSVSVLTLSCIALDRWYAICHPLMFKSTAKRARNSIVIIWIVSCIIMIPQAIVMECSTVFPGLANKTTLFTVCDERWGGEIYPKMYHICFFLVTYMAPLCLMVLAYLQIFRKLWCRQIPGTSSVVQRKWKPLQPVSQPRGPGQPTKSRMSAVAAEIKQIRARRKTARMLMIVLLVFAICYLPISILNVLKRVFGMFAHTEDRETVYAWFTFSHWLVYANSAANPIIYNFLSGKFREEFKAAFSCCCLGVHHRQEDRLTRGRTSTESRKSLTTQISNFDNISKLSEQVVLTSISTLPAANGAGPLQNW

Row | Compound | Emax [1] | Emax
1 | COC(=O)N1[C@H](C)C[C@H](NS(=O)(=O)N2CCC2)[C@@H]1CO[C@@H]1CC[C@]2(c3ncc(F)cn3)C[C@@H]2C1 [Example 43, methyl (2R,3S,5R)-3-(azetidine-1-sulfonamido)-2-((((1R,3R,6S)-6-(5-fluoropyrimidin-2-yl)bicyclo[4.1.0]heptan-3-yl)oxy)methyl)-5-methylpyrrolidine-1-carboxylate] | 97.8% | 
2 | COC(=O)N1[C@H](C)C[C@H](NS(=O)(=O)C(F)(F)F)[C@@H]1CO[C@@H]1CC[C@]2(c3ncc(F)cn3)C[C@@H]2C1 [Example 44, methyl (2R,3S,5R)-2-((((1R,3R,6S)-6-(5-fluoropyrimidin-2-yl)bicyclo[4.1.0]heptan-3-yl)oxy)methyl)-5-methyl-3-((trifluoromethyl)sulfonamido)pyrrolidine-1-carboxylate] | 103% | 
3 | COC(=O)N1[C@H](C)C[C@H](NS(=O)(=O)Cc2ccccc2)[C@@H]1CO[C@@H]1CC[C@]2(c3ncc(F)cn3)C[C@@H]2C1 [Example 45, methyl (2R,3S,5R)-2-((((1R,3R,6S)-6-(5-fluoropyrimidin-2-yl)bicyclo[4.1.0]heptan-3-yl)oxy)methyl)-5-methyl-3-((phenylmethyl)sulfonamido)pyrrolidine-1-carboxylate] | 92.7% | 
4 | COC(=O)N1[C@H](C)C[C@H](NS(=O)(=O)C(C)C)[C@@H]1CO[C@@H]1CC[C@]2(c3ncc(F)cn3)C[C@@H]2C1 [Example 46, methyl (2R,3S,5R)-2-((((1R,3R,6S)-6-(5-fluoropyrimidin-2-yl)bicyclo[4.1.0]heptan-3-yl)oxy)methyl)-5-methyl-3-((1-methylethyl)sulfonamido)pyrrolidine-1-carboxylate] | 100% | 
5 | CCS(=O)(=O)N[C@H]1C[C@@H](C)N(C(=O)OC)[C@H]1CO[C@@H]1CC[C@]2(c3ncc(F)cn3)C[C@@H]2C1 [Example 47, methyl (2R,3S,5R)-3-(ethylsulfonamido)-2-((((1R,3R,6S)-6-(5-fluoropyrimidin-2-yl)bicyclo[4.1.0]heptan-3-yl)oxy)methyl)-5-methylpyrrolidine-1-carboxylate] | 98.4% | 
6 | COC(=O)N1[C@H](C)C[C@H](NS(=O)(=O)C(F)F)[C@@H]1CO[C@H]1CC[C@@]2(c3ncc(F)cn3)C[C@H]2C1 [Example 48, methyl (2R,3S,5R)-3-((difluoromethyl)sulfonamido)-2-((((1S,3S,6R)-6-(5-fluoropyrimidin-2-yl)bicyclo[4.1.0]heptan-3-yl)oxy)methyl)-5-methylpyrrolidine-1-carboxylate] | 101% | 
7 | C[C@@H]1C[C@H](NS(C)(=O)=O)[C@H](CO[C@H]2CC[C@@]3(c4ncc(F)cn4)C[C@H]3C2)N1C(=O)OCC1CC(F)C1 (stereo partly drawn) [Example 49, (3-fluorocyclobutyl)methyl (2R,3S,5R)-2-((((1S,3S,6R)-6-(5-fluoropyrimidin-2-yl)bicyclo[4.1.0]heptan-3-yl)oxy)methyl)-5-methyl-3-(methylsulfonamido)pyrrolidine-1-carboxylate] |  | 103%
8 | CCC(OC(=O)N1[C@H](C)C[C@H](NS(C)(=O)=O)[C@@H]1CO[C@H]1CC[C@@]2(c3ncc(F)cn3)C[C@H]2C1)C(F)F (stereo partly drawn) [Example 50, 1,1-difluorobutan-2-yl (2R,3S,5R)-2-((((1S,3S,6R)-6-(5-fluoropyrimidin-2-yl)bicyclo[4.1.0]heptan-3-yl)oxy)methyl)-5-methyl-3-(methylsulfonamido)pyrrolidine-1-carboxylate] | 104% | 
9 | C[C@@H]1C[C@H](NS(C)(=O)=O)[C@H](CO[C@H]2CC[C@@]3(c4ncc(F)cn4)C[C@H]3C2)N1C(=O)OC[C@H]1C[C@H]1F [Example 51, ((1R,2R)-2-fluorocyclopropyl)methyl (2R,3S,5R)-2-((((1S,3S,6R)-6-(5-fluoropyrimidin-2-yl)bicyclo[4.1.0]heptan-3-yl)oxy)methyl)-5-methyl-3-(methylsulfonamido)pyrrolidine-1-carboxylate] | 102% | 
10 | C[C@@H]1C[C@H](NS(C)(=O)=O)[C@H](CO[C@H]2CC[C@@]3(c4ncc(F)cn4)C[C@H]3C2)N1C(=O)OCCC(F)F [Example 52, 3,3-difluoropropyl (2R,3S,5R)-2-((((1S,3S,6R)-6-(5-fluoropyrimidin-2-yl)bicyclo[4.1.0]heptan-3-yl)oxy)methyl)-5-methyl-3-(methylsulfonamido)pyrrolidine-1-carboxylate] | 102% | 
11 | C[C@@H]1C[C@H](NS(C)(=O)=O)[C@H](CO[C@H]2CC[C@@]3(c4ncc(F)cn4)C[C@H]3C2)N1C(=O)OCC1(F)CCC1 [Example 53, (1-fluorocyclobutyl)methyl (2R,3S,5R)-2-((((1S,3S,6R)-6-(5-fluoropyrimidin-2-yl)bicyclo[4.1.0]heptan-3-yl)oxy)methyl)-5-methyl-3-(methylsulfonamido)pyrrolidine-1-carboxylate] | 104% | 
12 | C[C@@H]1C[C@H](NS(C)(=O)=O)[C@H](CO[C@H]2CC[C@@]3(c4ncc(F)cn4)C[C@H]3C2)N1C(=O)OCC(F)C1CCC1 (stereo partly drawn) [Example 54, 2-cyclobutyl-2-fluoroethyl (2R,3S,5R)-2-((((1S,3S,6R)-6-(5-fluoropyrimidin-2-yl)bicyclo[4.1.0]heptan-3-yl)oxy)methyl)-5-methyl-3-(methylsulfonamido)pyrrolidine-1-carboxylate] | 104% | 
13 | C[C@@H]1C[C@H](NS(C)(=O)=O)[C@H](CO[C@H]2CC[C@@]3(c4ncc(F)cn4)C[C@H]3C2)N1C(=O)OC[C@H]1[C@H](C)C1(F)F [Example 55, ((1R,3S)-2,2-difluoro-3-methylcyclopropyl)methyl (2R,3S,5R)-2-((((1S,3S,6R)-6-(5-fluoropyrimidin-2-yl)bicyclo[4.1.0]heptan-3-yl)oxy)methyl)-5-methyl-3-(methylsulfonamido)pyrrolidine-1-carboxylate] | 105% | 
14 | C[C@@H]1C[C@H](NS(C)(=O)=O)[C@H](CO[C@H]2CC[C@@]3(c4ncc(F)cn4)C[C@H]3C2)N1C(=O)O[C@H]1COC[C@@H]1F [Example 56, (3S,4S)-4-fluorotetrahydrofuran-3-yl (2R,3S,5R)-2-((((1S,3S,6R)-6-(5-fluoropyrimidin-2-yl)bicyclo[4.1.0]heptan-3-yl)oxy)methyl)-5-methyl-3-(methylsulfonamido)pyrrolidine-1-carboxylate] | 104% | 
15 | C[C@@H]1C[C@H](NS(C)(=O)=O)[C@H](CO[C@H]2CC[C@@]3(c4ncc(F)cn4)C[C@H]3C2)N1C(=O)OCC1(C)CC1(F)F (stereo partly drawn) [Example 57, (2,2-difluoro-1-methylcyclopropyl)methyl (2R,3S,5R)-2-((((1S,3S,6R)-6-(5-fluoropyrimidin-2-yl)bicyclo[4.1.0]heptan-3-yl)oxy)methyl)-5-methyl-3-(methylsulfonamido)pyrrolidine-1-carboxylate] | 102% | 
16 | CC(F)COC(=O)N1[C@H](C)C[C@H](NS(C)(=O)=O)[C@@H]1CO[C@H]1CC[C@@]2(c3ncc(F)cn3)C[C@H]2C1 (stereo partly drawn) [Example 58, 2-fluoropropyl (2R,3S,5R)-2-((((1S,3S,6R)-6-(5-fluoropyrimidin-2-yl)bicyclo[4.1.0]heptan-3-yl)oxy)methyl)-5-methyl-3-(methylsulfonamido)pyrrolidine-1-carboxylate] | 103% | 
17 | C[C@@H]1C[C@H](NS(C)(=O)=O)[C@H](CO[C@H]2CC[C@@]3(c4ncc(F)cn4)C[C@H]3C2)N1C(=O)OCC1CC1(F)F (stereo partly drawn) [Example 59, (2,2-difluorocyclopropyl)methyl (2R,3S,5R)-2-((((1S,3S,6R)-6-(5-fluoropyrimidin-2-yl)bicyclo[4.1.0]heptan-3-yl)oxy)methyl)-5-methyl-3-(methylsulfonamido)pyrrolidine-1-carboxylate] | 104% | 
18 | CCC(F)(F)COC(=O)N1[C@H](C)C[C@H](NS(C)(=O)=O)[C@@H]1CO[C@H]1CC[C@@]2(c3ncc(F)cn3)C[C@H]2C1 [Example 60, 2,2-difluorobutyl (2R,3S,5R)-2-((((1S,3S,6R)-6-(5-fluoropyrimidin-2-yl)bicyclo[4.1.0]heptan-3-yl)oxy)methyl)-5-methyl-3-(methylsulfonamido)pyrrolidine-1-carboxylate] | 104% | 
19 | C[C@@H]1C[C@H](NS(C)(=O)=O)[C@H](CO[C@H]2CC[C@@]3(c4ncc(F)cn4)C[C@H]3C2)N1C(=O)OCC1(F)CC1 [Example 61, (1-fluorocyclopropyl)methyl (2R,3S,5R)-2-((((1S,3S,6R)-6-(5-fluoropyrimidin-2-yl)bicyclo[4.1.0]heptan-3-yl)oxy)methyl)-5-methyl-3-(methylsulfonamido)pyrrolidine-1-carboxylate] | 104% | 
20 | C[C@@H]1C[C@H](NS(C)(=O)=O)[C@H](CO[C@H]2CC[C@@]3(c4ncc(F)cn4)C[C@H]3C2)N1C(=O)OCCF [Example 62, 2-Fluoroethyl (2R,3S,5R)-2-((((1S,3S,6R)-6-(5-fluoropyrimidin-2-yl)bicyclo[4.1.0]heptan-3-yl)oxy)methyl)-5-methyl-3-(methylsulfonamido)pyrrolidine-1-carboxylate] | 100% | 
21 | CC(OC(=O)N1[C@H](C)C[C@H](NS(C)(=O)=O)[C@@H]1CO[C@H]1CC[C@@]2(c3ncc(F)cn3)C[C@H]2C1)C(F)F (stereo partly drawn) [Example 63, 1,1-Difluoropropan-2-yl (2R,3S,5R)-2-((((1S,3S,6R)-6-(5-fluoropyrimidin-2-yl)bicyclo[4.1.0]heptan-3-yl)oxy)methyl)-5-methyl-3-(methylsulfonamido)pyrrolidine-1-carboxylate] | 104% | 
22 | C[C@@H]1C[C@H](NS(C)(=O)=O)[C@H](CO[C@H]2CC[C@@]3(c4ncc(F)cn4)C[C@H]3C2)N1C(=O)OCC(C)(F)F [Example 64, 2,2-difluoropropyl (2R,3S,5R)-2-((((1S,3S,6R)-6-(5-fluoropyrimidin-2-yl)bicyclo[4.1.0]heptan-3-yl)oxy)methyl)-5-methyl-3-(methylsulfonamido)pyrrolidine-1-carboxylate] | 101% | 
